# According to PubChem BioAssay (NCI):
# Where “and” joins values, the source holds several entries; their conditions need not be identical. Equal entries are not always repeated.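 Growth conditions: 96-well plates. Treatment: test compound, 48 hours, 5 concentrations. Analysis: linear interpolation between bracketing concentrations; unreached endpoints set to highest concentration. Here, GI50 denotes the concentration required for 50% inhibition of growth. TGI denotes the concentration required for complete inhibition of growth.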
# Tested on: MDA-MB-468 breast
# Test: NCI-60 cell line screen, 48 h
SMILES,GI50,TGI
CC(=O)c1ccc(NC(=O)CSc2nnc(-c3cc(-c4ccc(C)cc4)nc4ccccc34)o2)cc1,3.54 µM,> 100 µM
O=[N+]([O-])c1ccc(-c2nc(-c3ccccc3)c(-c3ccccc3)n2-c2ccccc2)cc1,3.77 µM,12.7 µM
CS(=O)CCCCCN=C=S (centres undefined),2.68 µM,9.94 µM
CC(C)(C)c1nc2c(o1)C(=O)c1ccccc1C2=O,0.184 µM,0.564 µM
CCCCCCCC/C=C/CCCCCCCC1=NCC[N+]1(CCO)CCO,1.78 µM,4.56 µM
Cc1ccc(N2CCN(C3=C(Cl)C(=O)c4ncccc4C3=O)CC2)cc1,1.49 µM,3.04 µM
CC(C)CCOc1ccc(-c2n[nH]c(C(F)(F)F)c2-c2cncc(C#N)c2)c(O)c1,1.01 µM,4.83 µM
COc1ccc(C(=O)c2ccc(OC)c(OC)c2OC)cc1,0.696 µM,9.94 µM
CCCCCCCCCCCCCCCCCC1=NCCN1CS(=O)(=O)O,16.1 µM,33.8 µM
CCOc1ccc([C@@H]2[C@@H](Oc3ccccc3)C(=O)N2c2cc(OC)c(OC)c(OC)c2)cc1,0.0459 µM,> 100 µM
NC(=NCCCOc1ccc(Cl)cc1)Nc1ccc(Cl)cc1,1.71 µM,3.78 µM
Cc1cccc(Oc2nccc(-c3c(-c4ccc(F)cc4)ncn3C3CCNCC3)n2)c1C,2.95 µM,6.46 µM
ClC1=C(Cl)C(Cl)=C(Cl)C1=C/C=C/c1ccccc1,0.186 µM,0.433 µM
CC(=O)Nc1ccc(Sc2ccc([N+](=O)[O-])o2)cc1,0.933 µM,2.81 µM
CN1CCCNc2c(c(=O)c2=O)NCCCN(C)CCCNc2c(c(=O)c2=O)NCCCN(C)CCCNc2c(c(=O)c2=O)NCCCN(C)CCCNc2c(c(=O)c2=O)NCCCN(C)CCCNc2c(c(=O)c2=O)NCCCN(C)CCCNc2c(c(=O)c2=O)NCCCN(C)CCCNc2c(c(=O)c2=O)NCCC1,2 µM,12 µM
COC(=O)c1ccc2c(c1)nc(-c1cc3ccccc3[nH]c1=O)n2-c1cc(C(C)(C)C)[nH]n1,13.7 µM,> 100 µM
COc1cccc(C2C(C#N)=C(N)Oc3cc(N)ccc32)c1 (centres undefined),0.282 µM,0.987 µM
C=C(C)[C@@H]1CC[C@]2(C)[C@H](C(=O)C=C3[C@@H]4C[C@](C)(C(=O)N5CCN(C)CC5)CC[C@]4(C)CC[C@]32C)[C@@]1(C)CCC#N,5.92 µM,13.2 µM
COc1ccccc1-n1c(-c2cc(O)ccc2C)cn2c3c(=O)[nH]c(=O)n(C)c3nc12,15.6 µM,> 100 µM

SMILES,GI50,TGI
COc1cc(/C=C/c2cc(/C=C/c3ccc(O)c(OC)c3)n(-c3c(C)cccc3C)c(=O)n2)ccc1O,0.835 µM,3.61 µM
CCN(CC)c1cc(/C=C/c2ccc(OC)c(OC)c2)nc2cc(F)c(F)cc12,2.49 µM,10.3 µM
CCC(C)n1cc(C)c2c(C(=O)NCc3c(C)cc(C)[nH]c3=O)cc(Br)cc21 (centres undefined),22.8 µM,> 100 µM
CCCCCCCC/C=C/CCCCCCCCC1=NCCN1CCO,10.3 µM,26.6 µM
N#Cc1c(-c2ccc(Cl)cc2)n(O)c2ccccc12,1.63 µM,4.71 µM
CN(C)c1ccc(/C=C(/NC(=O)c2ccccc2)c2nc3ccc(Cl)cc3[nH]2)cc1,20.5 µM,70.5 µM
CC1/C=C/C=C/C=C/C=C/C=C/C=C/C=C/C(O[C@@H]2O[C@H](C)[C@H](O)[C@@H](O)[C@@H]2N)CC(O)C(C(=O)O)C(O)CC(=O)CC(O)CC(O)CC(O)CC(=O)CCCC(=O)CC(=O)OC1C(C)CC(C)C(O)CC(=O)c1ccc(N)cc1 (some centres undefined),0.0492 µM and 0.223 µM,0.0989 µM and 0.723 µM
COc1cc(C)c(-c2ccc(=O)c(OC)cc2C)c(OC)c1OC,> 100 µM and 14 µM,> 100 µM
CCN(CC)CCCNc1cccc2c(SCc3ccccc3)ccnc12,1.88 µM,3.43 µM
C=C1C[C@](OC)([C@H](O)C(=O)N[C@@H](OC)[C@@H]2C[C@@H](O)C(C)(C)[C@@H](C[C@@H](COC)OC)O2)O[C@H](C)[C@@H]1C,0.000941 µM,0.00348 µM
CC(=O)N1CC(Nc2ccc(OC(F)(F)F)cc2)=CC1=O,0.662 µM,4.74 µM
NC(CSC(c1ccccc1)(c1ccccc1)c1ccc(Cl)cc1)C(=O)O (centres undefined),0.0819 µM,4.18 µM
CC(C)[C@@]12C[C@@H](OC(=O)[C@H]3CO3)[C@@](C)(O1)[C@@H]1CC[C@@H](C)[C@H]1[C@@H]2OC(=O)/C=C/c1ccccc1,13.9 µM,30.9 µM
NCCCNc1nc2ccccc2c2c(=O)c3cc(C(F)(F)F)ccc3sc12,1.53 µM,2.99 µM
COc1cc(NCCCCN=C(N)NC(N)=NC(C)C)c2ncccc2c1,0.106 µM,0.435 µM
COc1ccc(Nn2c(SCC(=O)Nc3nc(-c4ccc(Cl)cc4)cs3)nc(C)c2C)cc1,0.574 µM,7.73 µM
Cc1nc2sccn2c(=O)c1CCN1CCC(=C(c2ccc(F)cc2)c2ccc(F)cc2)CC1,5.05 µM,19 µM
Cc1cc2cc3cc(C)c(N(C)C)cc3nc2cc1N(C)C,0.8 µM,9.01 µM
